Consider seven compounds from patent US10370405B2, “C-3 novel triterpenone with C-28 amide derivatives as HIV inhibitors” (HETERO LABS LIMITED, priority 2016, dated 2019).

Read-outs that look alike come from different tables or passages of the source.

The test system of one data set is HIV-1 strain 92HT599. Kind of data set: Antiviral activity: p24 estimation in MT2 cells infected with HIV-1. It counts as cell-based. The following applies: for IC50: Human immunodeficiency virus 1, MT2; for inhibition at 0.01 µM / inhibition at 0.1 µM / inhibition at 1 µM: Human immunodeficiency virus 1, MT2 cells, HIV-1 92HT599, p24, ~96 hours. The protocol:
MT2 cells were infected with HIV-1 strain 92HT599 (10 TCID 50/30000 cells). The infected cells were plated at the concentration of ˜30 000 cells per well in 96 well plate. Test compound was added to the micro plate in defined format with the final concentration of DMSO (vehicle) is not more than 1%. Incubation was carried out in CO2 incubator for ˜96 hours for viral infection. At the end of incubation period an aliquot from each well was taken for p24 estimation. The quantitation of p24 is an index for antiviral activity of the compound. Percent inhibition was calculated with reference to control values (vehicle controls). P-24 estimation was carried out using Advance biosciences kit as per the procedure detailed by supplier.

The nature of data set [1]: Single dose oral pharmacokinetic study. It is filed as in vivo. To be noted: mouse, plasma; Mice oral PK @30 mg/kg. How it is done: The test item was administered through oral route to animals (rat/mice) at 30 mg/kg dose in a suitable vehicle (10% Solutol+20% PEG) at 10 ml/kg dose volume. Blood samples (˜50 μL at each time point) were collected from retro-orbital plexus using K3 EDTA as anticoagulant in eppendorf tubes at defined time intervals 30 minutes, 1 hour, 2 hour, 4 hour, 8 hour, 24 hour & 48 hour under light ether anaesthesia. The samples were centrifuged at 3500×g to separate plasma and stored at −80° C. until analysis. Plasma […] for Mice were processed as per described in sample preparation.
Standard solutions of the test compound 1 mg/mL solutions were prepared in DMSO and further dilutions were made in methanol. The calibration curve samples for LCMSMS analysis were prepared by spiking 25 μl of Mice plasma with 2.5 μl and of the appropriate working standard solution to obtain final concentrations 0.078, 0.156, 0.312, 0.625, 1.25, 2.5, 5, 10, 20 & 40 µg/ml. To the test compound plasma extraction was carried out using Acetonitrile precipitation. After reconstitution with solvent (50% Acetonitrile in Buffer) samples were analyzed by LCMSMS to get the concentrations to calculate PK Parameters.

Where [2] appears, read: 0% serum, read-out: Antiviral activity IC50 (nM) 0%.
Where [3] appears, read: read-out: Antiviral activity IC50 (nM) 40% serum.

Procedure for in vitro: On day 1 calculate the number of cells required for the assay and seed 3×10^4 cells in 200 μl per well. Weigh the compound and dissolve it in DMSO to get 10 mM stock which is further diluted to 3 mM and 1 mM. The drugs from these stocks were added to plate to get final concentration of 100 μM, 30 μM and 10 μM. […] Incubate for 4 days in 5% CO2 incubator at 37° C. On day 4, 100 μl of medium was removed from each well without disturbing the cells. Add 10 μl of MTT reagent and incubate for 4 hours at 5% CO2 incubator at 37° C. for formation of crystals. Add 200 μl of 0.1N acidic isopropanol to dissolve the crystals and read the plate at 590 nm.

Usually IC50 stands for the concentration at which inhibition is half-maximal. The inhibition is the drop in the measured response relative to a control, in per cent. As usually defined, the AUC(0-t) is the area under the concentration-time curve up to a stated or last time point. Higher therefore signals high exposure. Broadly, the Cmax is the peak of the concentration-time curve. Broadly, the viability is the share of living cells, or the viability signal relative to a control. Higher therefore signals less harm to the cells. Consider `CC(C)C1=C2[C@H]3CC[C@@H]4[C@@]5(C)CC[C@H](OC(=O)[C@H]6C[C@@H](C(=O)O)C6(C)C)C(C)(C)[C@@H]5CC[C@@]4(C)[C@]3(C)CC[C@@]2(C(=O)N2CCCC2c2ncc(-c3ccccc3)[nH]2)CC1=O` (stereo partly drawn) [Example 1, (1R,3S)-3-((((3aR,5aR,5bR,7aR,9S,11aR,11bR,13aS)-1-isopropyl-5a,5b,8,8,11a-pentamethyl-2-oxo-3a-((S)-2-(5-phenyl-1H-imidazol-2-yl)pyrrolidine-1-carbonyl)-3,3a,4,5,5a,5b,6,7,7a,8,9,10,11,11a,11b,12,13,13a-octadecahydro-2H-cyclopenta[a]chrysen-9-yl)oxy)carbonyl)-2,2-dimethlcyclobutane-1-carboxylic acid], for which the IC50 in the data set with HIV-1 strain 92HT599 (setting [2]) is 5.21 nM. The IC50 with HIV-1 strain 92HT599 (setting [3]) is 3.92 nM. Moreover, in the data set with HIV-1 strain 92HT599, the inhibition at 0.01 µM is 100%, the inhibition at 0.1 µM was 98% and the inhibition at 1 µM is 99%. In data set [1], this compound showed an exposure AUC(0-t) of 69800 ng·h/mL and a Cmax of 8650 ng/mL. In “in vitro”, this compound showed a viability at 4 days, 10 μM of 80%; a viability at 4 days, 30 μM of 67%; a viability at 4 days, 100 μM of 62%.

`CC(C)C1=C2[C@H]3CC[C@@H]4[C@@]5(C)CC[C@H](OC(=O)[C@H]6C[C@@H](C(=O)O)C6(C)C)C(C)(C)[C@@H]5CC[C@@]4(C)[C@]3(C)CC[C@@]2(C(=O)N2CCC[C@H]2c2ncc(-c3ccc(F)cc3)[nH]2)CC1=O` [Example 2, (1R,3S)-3-((((3aR,5aR,5bR,7aR,9S,11aR,11bR,13aS)-3a-((S)-2-(5-(4-fluorophenyl)-1H-imidazol-2-yl)pyrrolidine-1-carbonyl)-1-isopropyl-5a,5b,8,8,11a-pentamethyl-2-oxo-3,3a,4,5,5a,5b,6,7,7a,8,9,10,11,11a,11b,12,13,13a-octadecahydro-2H-cyclopenta[a]chrysen-9-yl)oxy)carbonyl)-2,2-dimethlcyclobutane-1-carboxylic acid]: the concentration for half-maximal inhibition (IC50) in the data set on HIV-1 strain 92HT599 (setting [2]) was 3.89 nM. Besides, the concentration for half-maximal inhibition (IC50) in the data set on HIV-1 strain 92HT599 (setting [3]) is 51.2 nM. For the same compound, in the data set with HIV-1 strain 92HT599, the inhibition at 0.01 µM was 60%, the inhibition at 0.1 µM was 100% and the inhibition at 1 µM was 100%. In data set [1], this compound registered an area under the curve AUC(0-t) of 148000 ng·h/mL and a maximum concentration (Cmax) of 11900 ng/mL. In “in vitro”, the viability at 4 days, 10 μM was found to be 100%; the viability at 4 days, 30 μM worked out at 100%; the viability at 4 days, 100 μM worked out at 90%.

Regarding `CC(C)C1=C2[C@H]3CC[C@@H]4[C@@]5(C)CC[C@H](OC(=O)[C@H]6C[C@@H](C(=O)O)C6(C)C)C(C)(C)[C@@H]5CC[C@@]4(C)[C@]3(C)CC[C@@]2(C(=O)N2CCC[C@H]2c2ncc(-c3cccnc3)[nH]2)CC1=O` [Example 3, (1R,3S)-3-((((3aR,5aR,5bR,7aR,9S,11aR,11bR,13aS)-1-isopropyl-5a,5b,8,8,11a-pentamethyl-2-oxo-3a-((S)-2-(5-(pyridin-3-yl)-1H-imidazol-2-yl)pyrrolidine-1-carbonyl)-3,3a,4,5,5a,5b,6,7,7a,8,9,10,11,11a,11b,12,13,13a-octadecahydro-2H-cyclopenta[a]chrysen-9-yl)oxy)carbonyl)-2,2-dimethlcyclobutane-1-carboxylic acid], the IC50 in the data set on HIV-1 strain 92HT599 (setting [2]) was 1.82 nM. Further, the IC50 in the data set on HIV-1 strain 92HT599 (setting [3]) is 0.81 nM. Also, in the data set with HIV-1 strain 92HT599, the inhibition at 0.01 µM was 100%, the inhibition at 0.1 µM was 100% and the inhibition at 1 µM was 100%. Besides, in data set [1], the AUC(0-t) was found to be 48600 ng·h/mL and the concentration peaked (Cmax) at 8530 ng/mL. In “in vitro”, this compound came in with a viability at 4 days, 10 μM of 98%; a viability at 4 days, 30 μM of 67%; a viability at 4 days, 100 μM of 45%.

Take `CC(C)C1=C2[C@H]3CC[C@@H]4[C@@]5(C)CC[C@H](OC(=O)[C@H]6C[C@@H](C(=O)O)C6(C)C)C(C)(C)[C@@H]5CC[C@@]4(C)[C@]3(C)CC[C@@]2(C(=O)N2CC[C@@H](N3CCCC3)C2)CC1=O` [Example 4, (1R,3S)-3-((((3aR,5aR,5bR,7aR,9S,11aR,11bR,13aS)-3a-((R)-[1,3′-bipyrrolidine]-1′-carbonyl)-1-isopropyl-5a,5b,8,8,11a-pentamethyl-2-oxo-3,3a,4,5,5a,5b,6,7,7a,8,9,10,11,11a,11b,12,13,13a-octadecahydro-2H-cyclopenta[a]chrysen-9-yl)oxy)carbonyl)-2,2-dimethylcyclobutane-1-carboxylic acid]: the IC50 in the data set with HIV-1 strain 92HT599 (setting [2]) was 0.68 nM. Moreover, the half-maximal inhibitory concentration (IC50) with HIV-1 strain 92HT599 (setting [3]) was 54.5 nM. Moreover, in the data set with HIV-1 strain 92HT599, the inhibition at 0.01 µM was 100%, the inhibition at 0.1 µM was 100% and the inhibition at 1 µM was 100%. Also, in “in vitro”, the viability at 4 days, 10 μM turned out to be 62%; the viability at 4 days, 30 μM was found to be 6%; the viability at 4 days, 100 μM turned out to be 2%.

Turning to `CC(C)C1=C2[C@H]3CC[C@@H]4[C@@]5(C)CC[C@H](OC(=O)[C@H]6C[C@@H](C(=O)O)C6(C)C)C(C)(C)[C@@H]5CC[C@@]4(C)[C@]3(C)CC[C@@]2(C(=O)N2CCC[C@H]2CN2CCC[C@H]2CO)CC1=O` [Example 5, (1R,3S)-3-((((3aR,5aR,5bR,7aR,9S,11aR,11bR,13aS)-3a-((S)-2-(((S)-2-(hydroxymethyl)pyrrolidin-1-yl)methyl)pyrrolidine-1-carbonyl)-1-isopropyl-5a,5b,8,8,11a-pentamethyl-2-oxo-3,3a,4,5,5a,5b,6,7,7a,8,9,10,11,11a,11b,12,13,13a-octadecahydro-2H-cyclopenta[a]chrysen-9-yl)oxy)carbonyl)-2,2-dimethlcyclobutane-1-carboxylic acid], the IC50 in the data set with HIV-1 strain 92HT599 (setting [2]) was 0.93 nM. For the same compound, the 50% inhibitory concentration (IC50) with HIV-1 strain 92HT599 (setting [3]) is 25.5 nM. In the data set with HIV-1 strain 92HT599, the inhibition at 0.01 µM was 100%, the inhibition at 0.1 µM was 100% and the inhibition at 1 µM is 100%. Besides, in the data set “in vitro”, the viability at 4 days, 10 μM turned out to be 70%; the viability at 4 days, 30 μM was determined as 70%; the viability at 4 days, 100 μM is 73%.

For the compound `CC(C)C1=C2[C@H]3CC[C@@H]4[C@@]5(C)CC[C@H](OC(=O)[C@H]6C[C@@H](C(=O)O)C6(C)C)C(C)(C)[C@@H]5CC[C@@]4(C)[C@]3(C)CC[C@@]2(C(=O)N2CCC[C@H]2CN2CCC(F)(F)C2)CC1=O` [Example 6, (1R,3S)-3-((((3aR,5aR,5bR,7aR,9S,11aR,11bR,13aS)-3a-((S)-2-((3,3-difluoropyrrolidin-1-yl)methyl)pyrrolidine-1-carbonyl)-1-isopropyl-5a,5b,8,8,11a-pentamethyl-2-oxo-3,3a,4,5,5a,5b,6,7,7a,8,9,10,11,11a,11b,12,13,13a-octadecahydro-2H-cyclopenta[a]chrysen-9-yl)oxy)carbonyl)-2,2-dimethylcyclobutane-1-carboxylic acid], in the data set with HIV-1 strain 92HT599 (setting [2]), the concentration for half-maximal inhibition (IC50) was 0.72 nM. For the same compound, the IC50 in the data set on HIV-1 strain 92HT599 (setting [3]) is 203 nM. For the same compound, in the data set with HIV-1 strain 92HT599, the inhibition at 0.01 µM was 100%, the inhibition at 0.1 µM was 100% and the inhibition at 1 µM was 100%. Moreover, in data set [1], the AUC(0-t) is 76600 ng·h/mL and the Cmax was determined as 11500 ng/mL. In addition, in the data set “in vitro”, the viability at 4 days, 10 μM was 57%; the viability at 4 days, 30 μM stood at 10%; the viability at 4 days, 100 μM was 6%.

In the case of `CC(C)C1=C2[C@H]3CC[C@@H]4[C@@]5(C)CC[C@H](OC(=O)[C@H]6C[C@@H](C(=O)O)C6(C)C)C(C)(C)[C@@H]5CC[C@@]4(C)[C@]3(C)CC[C@@]2(C(=O)N2CCC[C@H]2CN2CCC(F)CC2)CC1=O` [Example 10, (1R,3S)-3-((((3aR,5aR,5bR,7aR,9S,11aR,11bR,13aS)-3a-((S)-2-((4-fluoropiperidin-1-yl)methyl)pyrrolidine-1-carbonyl)-1-isopropyl-5a,5b,8,8,11a-pentamethyl-2-oxo-3,3a,4,5,5a,5b,6,7,7a,8,9,10,11,11a,11b,12,13,13a-octadecahydro-2H-cyclopenta[a]chrysen-9-yl)oxy)carbonyl)-2,2-dimethylcyclobutane-1-carboxylic acid], the IC50 with HIV-1 strain 92HT599 (setting [2]) was 1.06 nM. The 50% inhibitory concentration (IC50) in the data set with HIV-1 strain 92HT599 (setting [3]) was 0.93 nM. Also, in the data set with HIV-1 strain 92HT599, the inhibition at 0.01 µM is 97%, the inhibition at 0.1 µM was 100% and the inhibition at 1 µM was 100%. Besides, in “in vitro”, the viability at 4 days, 10 μM turned out to be 31%; the viability at 4 days, 30 μM stood at 4%; the viability at 4 days, 100 μM was 4%.
